Assay results from paper doi:10.1101/2024.04.17.589937v1 (biorxiv, 2024).

How the values were obtained:
[1] = test system: Human rhinovirus B14 RV-B 14; test: microbe, parasite or virus in culture; conditions: H1-HeLa, read-out: RV EC50 (µM)
[2] = test system: Human rhinovirus A16 RV-A 16; conditions: read-out: H1 HeLa CC50, h1 hela cells, 96 h
Enterovirus A71 EV-71 = test: microbe, parasite or virus in culture; conditions: Enterovirus A, EV71, RD, read-out: EV EC50 (µM)
LLC-MK2 = conditions: monkey, llc-mk2 cells
EV-D68 [3] = test: microbe, parasite or virus in culture; conditions: Enterovirus D, EVD68, RD, read-out: EV EC50 (µM)
in vitro = conditions: human, a549-hace2 cells
[4] = test system: Influenza A virus FluA H1N1; test: microbe, parasite or virus in culture; conditions: H1N1, MDCK, read-out: FluA H1N1 EC50 (µM)
MDCK = conditions: read-out: MDCK CC50, dog
EV-D68 [5] = conditions: read-out: RD CC50; human, rd cells
[6] = test system: Human metapneumovirus hMPV A1; test: microbe, parasite or virus in culture; conditions: LLC-MK2, read-out: hMPV A1 EC50 (µM)
[7] = test system: Human rhinovirus A16 RV-A 16; test: microbe, parasite or virus in culture; conditions: H1-HeLa, read-out: RV EC50 (µM)
[8] = target: T1, human mitochondrial RNA polymerase (POLRMT) (Homo sapiens, UniProt O00411); test: biochemical
DNA Pol γ = DNA Pol γ (Homo sapiens, UniProt P54098); test: human DNA polymerase inhibition assay; assay type: biochemical
DNA Pol α = DNA Pol α (Homo sapiens, UniProt P09884); test: human DNA polymerase inhibition assay; assay type: biochemical
[9] = target: T1, human mitochondrial RNA polymerase (POLRMT); test: single nucleotide incorporation rate assay; assay type: biochemical

T1 sequence (O00411 42-1230): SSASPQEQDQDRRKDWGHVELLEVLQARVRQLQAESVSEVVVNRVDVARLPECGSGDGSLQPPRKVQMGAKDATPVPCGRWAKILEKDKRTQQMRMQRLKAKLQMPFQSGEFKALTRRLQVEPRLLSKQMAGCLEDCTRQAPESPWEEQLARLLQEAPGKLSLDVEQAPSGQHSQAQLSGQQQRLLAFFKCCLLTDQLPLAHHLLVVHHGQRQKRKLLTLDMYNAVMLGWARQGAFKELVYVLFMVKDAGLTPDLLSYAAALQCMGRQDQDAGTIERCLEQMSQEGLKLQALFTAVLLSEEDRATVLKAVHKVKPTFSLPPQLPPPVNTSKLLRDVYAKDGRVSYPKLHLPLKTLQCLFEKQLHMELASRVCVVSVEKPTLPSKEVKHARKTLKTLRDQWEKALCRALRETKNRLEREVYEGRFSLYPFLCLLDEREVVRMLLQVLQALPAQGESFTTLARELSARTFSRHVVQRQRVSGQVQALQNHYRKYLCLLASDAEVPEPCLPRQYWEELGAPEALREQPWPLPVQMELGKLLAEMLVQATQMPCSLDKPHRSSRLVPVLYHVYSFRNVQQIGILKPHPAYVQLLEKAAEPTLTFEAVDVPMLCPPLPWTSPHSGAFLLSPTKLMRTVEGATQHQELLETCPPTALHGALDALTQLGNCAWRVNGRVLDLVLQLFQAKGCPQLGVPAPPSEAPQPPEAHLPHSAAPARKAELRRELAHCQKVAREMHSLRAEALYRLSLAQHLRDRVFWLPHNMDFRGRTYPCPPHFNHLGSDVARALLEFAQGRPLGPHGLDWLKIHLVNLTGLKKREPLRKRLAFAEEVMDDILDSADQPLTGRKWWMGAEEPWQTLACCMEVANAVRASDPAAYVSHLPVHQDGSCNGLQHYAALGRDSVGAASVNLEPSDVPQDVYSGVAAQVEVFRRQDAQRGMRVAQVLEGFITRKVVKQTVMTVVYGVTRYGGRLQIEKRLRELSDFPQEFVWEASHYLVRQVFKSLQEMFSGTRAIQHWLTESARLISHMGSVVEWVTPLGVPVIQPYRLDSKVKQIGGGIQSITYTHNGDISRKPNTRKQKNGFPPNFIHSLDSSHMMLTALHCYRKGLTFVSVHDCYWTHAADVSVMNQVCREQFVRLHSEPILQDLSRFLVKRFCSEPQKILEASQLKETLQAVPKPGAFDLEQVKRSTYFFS
Chain of DNA Pol γ (Q9UHN1 26-485): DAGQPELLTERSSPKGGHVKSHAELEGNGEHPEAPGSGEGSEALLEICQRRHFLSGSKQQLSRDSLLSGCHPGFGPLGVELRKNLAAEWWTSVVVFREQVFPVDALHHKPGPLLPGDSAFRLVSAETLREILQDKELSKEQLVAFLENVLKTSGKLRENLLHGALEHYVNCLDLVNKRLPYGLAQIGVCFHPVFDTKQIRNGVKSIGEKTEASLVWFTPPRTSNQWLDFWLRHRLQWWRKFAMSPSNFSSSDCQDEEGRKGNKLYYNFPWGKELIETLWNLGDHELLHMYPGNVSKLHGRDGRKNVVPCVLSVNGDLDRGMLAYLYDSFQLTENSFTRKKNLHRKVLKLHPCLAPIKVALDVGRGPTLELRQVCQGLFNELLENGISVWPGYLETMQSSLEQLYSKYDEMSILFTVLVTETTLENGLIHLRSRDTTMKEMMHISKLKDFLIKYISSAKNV
Chain of DNA Pol γ (P54098 whole entry): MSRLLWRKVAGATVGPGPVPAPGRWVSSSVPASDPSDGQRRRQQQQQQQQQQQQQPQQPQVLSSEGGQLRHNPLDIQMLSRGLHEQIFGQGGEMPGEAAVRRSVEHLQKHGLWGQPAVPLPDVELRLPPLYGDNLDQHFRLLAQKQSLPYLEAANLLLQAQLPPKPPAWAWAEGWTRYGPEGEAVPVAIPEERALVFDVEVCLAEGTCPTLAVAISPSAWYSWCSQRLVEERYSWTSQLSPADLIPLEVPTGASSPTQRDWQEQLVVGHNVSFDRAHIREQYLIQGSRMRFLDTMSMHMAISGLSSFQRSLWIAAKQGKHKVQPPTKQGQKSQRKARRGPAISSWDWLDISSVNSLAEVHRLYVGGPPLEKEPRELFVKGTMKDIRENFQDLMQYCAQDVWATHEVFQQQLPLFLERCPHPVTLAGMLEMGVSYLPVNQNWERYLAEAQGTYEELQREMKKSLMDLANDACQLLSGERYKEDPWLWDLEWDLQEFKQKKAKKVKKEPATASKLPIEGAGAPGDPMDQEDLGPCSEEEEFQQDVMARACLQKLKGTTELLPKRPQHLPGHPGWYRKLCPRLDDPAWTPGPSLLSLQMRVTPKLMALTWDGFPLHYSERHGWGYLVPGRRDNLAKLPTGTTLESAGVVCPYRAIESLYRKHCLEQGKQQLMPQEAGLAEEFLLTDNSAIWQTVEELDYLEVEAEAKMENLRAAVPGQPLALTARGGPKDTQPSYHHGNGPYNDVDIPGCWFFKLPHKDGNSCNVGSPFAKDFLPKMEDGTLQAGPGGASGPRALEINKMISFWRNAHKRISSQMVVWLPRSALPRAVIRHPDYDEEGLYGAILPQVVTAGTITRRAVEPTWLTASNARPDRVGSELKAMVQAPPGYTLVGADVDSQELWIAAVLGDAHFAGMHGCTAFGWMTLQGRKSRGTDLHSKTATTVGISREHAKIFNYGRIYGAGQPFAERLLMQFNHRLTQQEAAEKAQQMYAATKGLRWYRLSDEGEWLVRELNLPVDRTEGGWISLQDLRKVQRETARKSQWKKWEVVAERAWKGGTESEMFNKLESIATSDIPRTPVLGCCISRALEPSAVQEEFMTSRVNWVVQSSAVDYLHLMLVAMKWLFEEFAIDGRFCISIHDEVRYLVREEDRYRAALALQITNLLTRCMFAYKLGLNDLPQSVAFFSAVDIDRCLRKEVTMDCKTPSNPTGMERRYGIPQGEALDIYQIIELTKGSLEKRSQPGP
Chain of DNA Pol α (P09884 whole entry): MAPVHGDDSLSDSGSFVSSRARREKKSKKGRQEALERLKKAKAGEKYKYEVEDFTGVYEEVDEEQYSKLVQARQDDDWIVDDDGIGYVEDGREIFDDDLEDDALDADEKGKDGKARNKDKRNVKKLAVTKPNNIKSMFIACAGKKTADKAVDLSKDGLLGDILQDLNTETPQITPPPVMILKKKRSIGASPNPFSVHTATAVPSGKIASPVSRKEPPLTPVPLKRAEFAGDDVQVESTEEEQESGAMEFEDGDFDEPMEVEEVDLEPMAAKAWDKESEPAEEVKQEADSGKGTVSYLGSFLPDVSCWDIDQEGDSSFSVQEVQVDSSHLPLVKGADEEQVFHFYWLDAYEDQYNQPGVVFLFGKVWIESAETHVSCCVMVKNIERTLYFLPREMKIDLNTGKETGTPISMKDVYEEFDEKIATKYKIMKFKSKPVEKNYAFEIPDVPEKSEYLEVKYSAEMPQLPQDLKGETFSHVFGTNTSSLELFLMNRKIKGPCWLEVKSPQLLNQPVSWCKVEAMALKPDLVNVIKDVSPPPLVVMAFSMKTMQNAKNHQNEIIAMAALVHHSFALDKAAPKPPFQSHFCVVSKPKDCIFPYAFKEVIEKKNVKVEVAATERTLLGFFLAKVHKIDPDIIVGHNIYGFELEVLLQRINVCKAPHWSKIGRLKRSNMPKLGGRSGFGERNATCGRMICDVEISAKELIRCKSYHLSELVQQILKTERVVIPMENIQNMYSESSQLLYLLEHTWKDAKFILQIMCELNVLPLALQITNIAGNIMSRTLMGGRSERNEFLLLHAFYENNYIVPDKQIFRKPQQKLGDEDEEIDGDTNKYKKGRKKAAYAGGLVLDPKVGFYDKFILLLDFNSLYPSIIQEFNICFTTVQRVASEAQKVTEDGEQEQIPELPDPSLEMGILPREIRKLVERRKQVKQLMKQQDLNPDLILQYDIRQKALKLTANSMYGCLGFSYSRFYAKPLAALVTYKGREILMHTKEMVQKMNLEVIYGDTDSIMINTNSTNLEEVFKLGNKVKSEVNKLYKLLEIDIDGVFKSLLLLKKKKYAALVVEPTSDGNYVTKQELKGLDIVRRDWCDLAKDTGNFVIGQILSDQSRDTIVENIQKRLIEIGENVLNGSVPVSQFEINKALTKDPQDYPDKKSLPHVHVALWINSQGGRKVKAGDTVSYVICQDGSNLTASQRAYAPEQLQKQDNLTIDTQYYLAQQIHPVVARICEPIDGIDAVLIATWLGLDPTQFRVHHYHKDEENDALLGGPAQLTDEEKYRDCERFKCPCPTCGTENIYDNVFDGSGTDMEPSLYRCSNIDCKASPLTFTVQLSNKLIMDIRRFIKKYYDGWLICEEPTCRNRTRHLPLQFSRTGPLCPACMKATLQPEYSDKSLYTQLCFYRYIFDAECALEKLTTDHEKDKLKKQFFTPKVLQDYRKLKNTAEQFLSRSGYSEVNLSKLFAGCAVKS

| SMILES | EC50 [1] [µM] | CC50 [2] [µM] | EC50 (Enterovirus A71 EV-71) [µM] | CC50 (LLC-MK2) [nM] | EC50 (EV-D68 [3]) [µM] | CC50 at 28 h (in vitro) [µM] | EC50 [4] [µM] | CC50 (MDCK) [nM] | CC50 (EV-D68 [5]) [nM] | EC50 [6] [µM] | EC50 [7] [µM] | IC50 [8] [µM] | IC50 (DNA Pol γ) [µM] | IC50 (DNA Pol α) [µM] | SNIR [9] [%] |
| --- | --- | --- | --- | --- | --- | --- | --- | --- | --- | --- | --- | --- | --- | --- | --- |
| COC(=O)[C@H](C)N[P@](=O)(OC[C@@]1(C#N)O[C@@H](c2ccc3c(N)ncnn23)[C@H](OC(=O)C(C)C)[C@@H]1OC(=O)C(C)C)Oc1ccccc1 [compound 1, GS-7682] | 0.054 ± 0.002 | 22.2 ± 6.3 | 0.083 ± 0.035 | > 2000 | 0.09 ± 0.06 | 21.1 ± 4.4 | > 2 | > 2000 | > 2000 | 0.21 ± 0.05 | 0.061 ± 0.006 |  |  |  |  |
| N#C[C@]1(COP(=O)(O)OP(=O)(O)OP(=O)(O)O)O[C@@H](c2ccc3c(N)ncnn23)[C@H](O)[C@@H]1O [2-NTP, ((2R,3S,4R,5S)-5-(4-Aminopyrrolo[2,1-f][1,2,4]triazin-7-yl)-2-cyano-3,4-dihydroxytetrahydrofuran-2-yl)methyl triphosphate] |  |  |  |  |  |  |  |  |  |  |  | > 200 | > 200 | > 200 | 0.8 |
